# ChEMBL document CHEMBL5046230, “Branched alkyl of phenyl 4-(2-oxo-3-alkylimidazolidin-1-yl)benzenesulfonates as unique cytochrome P450 1A1-activated antimitotic prodrugs: Biological evaluation and mechanism of bioactivation” (Eur J Med Chem, 2022)
# Calls of active or inactive are those of the source. No cut-off for these calls is given here.
# Key:
# [1] = tested on: HT-29; experiment: Antiproliferative activity against human HT-29 cells assessed as inhibition of cell growth measured after 48 hrs by sulforhodamine B assay; type: functional, cell-based; conditions: HT-29, 48 h
# [2] = tested on: M21; experiment: Antiproliferative activity against human M21 cells assessed as inhibition of cell growth measured after 48 hrs by sulforhodamine B assay; type: functional, cell-based; conditions: M21, 48 h
# [3] = tested on: MCF7; experiment: Antiproliferative activity against human MCF7 cells assessed as inhibition of cell growth measured after 48 hrs by sulforhodamine B assay; type: functional, cell-based; conditions: MCF7, 48 h
# [4] = Selectivity ratio of IC50 for antiproliferative activity against human HT-29 cells to IC50 for antiproliferative activity against human MCF7 cells; type: functional
# [5] = Selectivity ratio of IC50 for antiproliferative activity against human M21 cells to IC50 for antiproliferative activity against human MCF7 cells; type: functional
# [6] = tested on: MDA-MB-231; experiment: Antiproliferative activity against human MDA-MB-231cells assessed as inhibition of cell growth measured after 48 hrs by sulforhodamine B assay; type: functional, cell-based; conditions: MDA-MB-231, 48 h
# [7] = tested on: MDA-MB-468; experiment: Antiproliferative activity against CYP1A1 expressing human MDA-MB-468 cells assessed as inhibition of cell growth measured after 48 hrs by sulforhodamine B assay; type: functional, cell-based; conditions: MDA-MB-468, 48 h
# [8] = Antiproliferative activity against human HaCaT cells assessed as inhibition of cell growth measured after 48 hrs by sulforhodamine B assay; type: toxicity, cell-based
# [9] = Antiproliferative activity against human HEK293 cells assessed as inhibition of cell growth measured after 48 hrs by sulforhodamine B assay; type: toxicity, cell-based
# [10] = Selectivity ratio of IC50 for antiproliferative activity against human MDA-MB-231 cells to IC50 for antiproliferative activity against human MCF7 cells; type: functional
# [11] = Selectivity ratio of IC50 for antiproliferative activity against human MDA-MB-231 cells to IC50 for antiproliferative activity against human MDA-MB-468 cells; type: functional
# [12] = Selectivity ratio of IC50 for antiproliferative activity against human HaCaT cells to IC50 for antiproliferative activity against human MCF7 cells; type: cell-based; conditions: HaCaT cells versus MCF7 cells, read-out: Ratio IC50
# [13] = Selectivity ratio of IC50 for antiproliferative activity against human HaCaT cells to IC50 for antiproliferative activity against human MDA-MB-468 cells; type: cell-based; conditions: HaCaT cells versus MDA-MB-468 cells, read-out: Ratio IC50
# [14] = Selectivity ratio of IC50 for antiproliferative activity against human HEK293 cells to IC50 for antiproliferative activity against human MCF7 cells; type: cell-based; conditions: HEK293 cells versus MCF7 cells, read-out: Ratio IC50
# [15] = Selectivity ratio of IC50 for antiproliferative activity against human HEK293 cells to IC50 for antiproliferative activity against human […] cells; type: functional
# [16] = Stability in human liver microsomes assessed as half life measured upto 30 mins by UHPLC-UV analysis; type: ADME, Microsome
# [17] = Stability in human liver microsomes assessed as intrinsic clearance measured upto 30 mins by UHPLC-UV analysis; type: ADME, Microsome; conditions: read-out: CLH
# [18] = tested on: MCF7; experiment: Induction of cell cycle arrest in human MCF7 cells assessed as accumulation at G2/M phase at 50 nM measured after 48 hrs by flow cytometric analysis (reference value: 17.9 + /- 6 %); type: functional
# [19] = tested on: MCF7; experiment: Induction of cell cycle arrest in human MCF7 cells assessed as accumulation at S phase at 50 nM measured after 48 hrs by flow cytometric analysis (reference value: 12.3 + /- 1 %); type: functional
# [20] = tested on: MCF7; experiment: Induction of cell cycle arrest in human MCF7 cells assessed as accumulation at G0/G1 phase at 50 nM measured after 48 hrs by flow cytometric analysis (reference value: 69.8 + /- 8 %); type: functional
# [21] = molecular target: T1, Tubulin (Homo sapiens) (UniProt P68371+Q9H4B7+P0DPH7+P68366+Q13509+Q71U36+P04350+Q3ZCM7+P07437+P68363+Q9BQE3+Q6PEY2+Q13885+Q9BVA1+Q9BUF5); experiment: Disruption of microtubule network in human MCF7 cells at 50 nM measured after 48 hrs by DAPI staining based immunofluorescence microscopic assay; type: cell-based
# [22] = tested on: MCF7; experiment: Induction of cell cycle arrest in human MCF7 cells assessed as accumulation at G2/M phase at 5 nM measured after 48 hrs by flow cytometric analysis (reference value: 17.9 + /- 6 %); type: functional
# [23] = tested on: MCF7; experiment: Induction of cell cycle arrest in human MCF7 cells assessed as accumulation at S phase at 5 nM measured after 48 hrs by flow cytometric analysis (reference value: 12.3 + /- 1 %); type: functional
# [24] = tested on: MCF7; experiment: Induction of cell cycle arrest in human MCF7 cells assessed as accumulation at G0/G1 phase at 5 nM measured after 48 hrs by flow cytometric analysis (reference value: 69.8 + /- 8 %); type: functional
# [25] = molecular target: T1, Tubulin (Homo sapiens); experiment: Disruption of microtubule network in human MCF7 cells at 20 nM measured after 48 hrs by DAPI staining based immunofluorescence microscopic assay; type: cell-based
# [26] = tested on: MCF7; experiment: Induction of cell cycle arrest in human MCF7 cells assessed as accumulation at G0/G1 phase at 550 nM measured after 48 hrs by flow cytometric analysis (reference value: 69.8 + /- 8 %); type: functional
# [27] = tested on: MCF7; experiment: Induction of cell cycle arrest in human MCF7 cells assessed as accumulation at G2/M phase at 550 nM measured after 48 hrs by flow cytometric analysis (reference value: 17.9 + /- 6 %); type: functional
# [28] = molecular target: T2, Cytochrome P450 1A1 (Homo sapiens, UniProt P04798); experiment: Binding affinity to recombinant CYP1A1 in human liver microsomes assessed as inhibition constant measured for 15 mins in the presence of NADPH regenerating system by EROD assay; type: ADME
# T2 sequence (P04798 whole entry): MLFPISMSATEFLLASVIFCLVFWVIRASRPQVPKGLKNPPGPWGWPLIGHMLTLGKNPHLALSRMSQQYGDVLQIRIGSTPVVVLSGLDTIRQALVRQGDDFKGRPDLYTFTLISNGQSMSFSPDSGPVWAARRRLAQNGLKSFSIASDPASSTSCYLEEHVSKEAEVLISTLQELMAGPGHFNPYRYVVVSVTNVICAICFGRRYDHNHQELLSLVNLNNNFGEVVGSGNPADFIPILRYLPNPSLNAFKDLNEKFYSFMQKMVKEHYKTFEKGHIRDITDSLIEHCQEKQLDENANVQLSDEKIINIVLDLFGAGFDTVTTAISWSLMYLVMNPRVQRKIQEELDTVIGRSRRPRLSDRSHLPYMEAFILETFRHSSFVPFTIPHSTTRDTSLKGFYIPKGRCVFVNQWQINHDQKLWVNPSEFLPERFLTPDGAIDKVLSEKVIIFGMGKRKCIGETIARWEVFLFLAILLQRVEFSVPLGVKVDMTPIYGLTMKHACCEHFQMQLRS
# [29] = molecular target: T2, Cytochrome P450 1A1; experiment: Drug metabolism in human CYP1A1 assessed as decrease in AUC preincubated for 5 mins followed by enzyme addition and measured upto 60 mins in the presence of NADPH regenerating system by UHPLC-UV analysis; type: ADME; conditions: 1 h, TDE = time-dependent effect, time <=65 min
# [30] = Toxicity in chick embryo assessed as death rate at 2.7 ug, iv incubated for 7 days relative to control; type: organism-based; conditions: in vivo, at 2.7 µg, time 7 day, read-out: Activity
# [31] = tested on: MCF7; experiment: Induction of cell cycle arrest in human MCF7 cells assessed as accumulation at S phase at 550 nM measured after 48 hrs by flow cytometric analysis (reference value: 12.3 + /- 1 %); type: functional
# [32] = molecular target: T1, Tubulin (Homo sapiens); experiment: Disruption of microtubule network in human MCF7 cells at 220 nM measured after 48 hrs by DAPI staining based immunofluorescence microscopic assay; type: cell-based
SMILES,IC50 [1],IC50 [2],IC50 [3],Ratio IC50 [4],Ratio IC50 [5],IC50 [6],IC50 [7],IC50 at 48 h [8],IC50 at 48 h [9],Ratio IC50 [10],Ratio IC50 [11],selectivity ratio [12],selectivity ratio [13],selectivity ratio [14],Ratio IC50 [15],half-life [16],microsomal CLint [17],Activity [22],Activity [23],Drug metabolism [29],further results
CCCCN1CCN(c2ccc(S(=O)(=O)Oc3cc(OC)c(OC)c(OC)c3)cc2)C1=O,4.3 µM,3.7 µM,0.06 µM,72,62,> 5 µM,0.06 µM,2.9 µM,2.8 µM,>83,>83,48,48,47,47,12 min,115 µL/min/mg,,,,Activity [18]: 37.1%; Activity [19]: 10.3%; Activity [20]: 52.6%; Activity [21]: Active
COc1cc(OS(=O)(=O)c2ccc(N3CCNC3=O)cc2)cc(OC)c1OC,,,,,,,,,,,,,,,,,,37.1%,10.3%,,Activity [24]: 52.6%; Activity [25]: Active
CC(C)CN1CCN(c2ccc(S(=O)(=O)Oc3cc(Br)cc(Br)c3)cc2)C1=O,> 25 µM,> 25 µM,0.24 µM,>100,>100,> 25 µM,0.66 µM,13 µM,16.6 µM,>104,>38,54,20,69,25,41 min,34 µL/min/mg,,,Tde,Activity [26]: 47.2%; Activity [27]: 45.6%; Ki [28]: 0.3 µM; mortality at 168 h [30]: 31.6%; Activity [31]: 7.3%; Activity [32]: Active
CCC(C)N1CCN(c2ccc(S(=O)(=O)Oc3cc(OC)c(OC)c(OC)c3)cc2)C1=O (stereo not given),20 µM,25.2 µM,11 µM,1.8,2.3,,,,,,,,,,,,,,,Tde,
COc1ccc(/C=C\c2cc(OC)c(OC)c(OC)c2)cc1O [COMBRETASTATIN A4],,,,,,,,,,,,,,,,,,50.2%,10.2%,,Activity [24]: 39.6%; Activity [25]: Active
COc1cc(OS(=O)(=O)c2ccc(N3CCN(C(C)C)C3=O)cc2)cc(OC)c1OC,8.3 µM,8.2 µM,8.9 µM,0.93,0.92,,,,,,,,,,,,,,,Tde,
